From patent US8212016B2, “NPC1L1 orthologues” (Schering Corporation, priority 2006, dated 2012)
Read-outs that look alike come from different tables or passages of the source.

Key:
mouse NPC1L1 = biological target: T1, mouse NPC1L1 (Mus musculus, UniProt Q6T3U4, N476K); experiment: Fluorescence NPC1L1 binding assay, HEK-293 cells, fluorescent compound 2 as ligand
T1 construct: expressed in transfected cells
Method: (§1) Cell Culture and Membrane Preparation. Each plasmid pCR3.1 harboring NPC1L1 was prepared using standard molecular biology protocols. Stable cell lines expressing human, rhesus monkey, mouse, rat, hamster, canine or rabbit NPC1L1 were generated using Lipofectamine 2000 transfection reagent in HEK-293 cells according to the manufacturer's protocol. Cells were maintained in DMEM supplemented with 10% FBS, 100 U/ml pen/strep, and 500 μg/ml geneticin at 37° C., 5% CO2. All cell culture reagents were obtained from Invitrogen Life Technologies, (Carlsbad, Calif.). Cell membranes were prepared by lysing cells in 5 mM HEPES with protease inhibitors (Complete™ Protease Inhibitor Cocktail Tablets; Roche Diagnostics Corp., Indianapolis Ind.) for 15 min at 4° C. A membrane pellet was obtained by centrifuging the cell lysates at 12,000×g for 25 min. The membranes were resuspended in 5 mM HEPES with protease inhibitors and triturated with a 21G needle.
(§2) Fluorescence. Cells were plated into 384-well black/clear plates (BD Biosciences, Bedford Mass.) for binding experiments the following day. The media was aspirated. […] Media (20 μl) containing the indicated concentration of compound was then added to the wells. […] The binding reaction was allowed to proceed for 4 hours at 37° C. Subsequently the media was aspirated and the cells washed once with PBS.
In an effort to show binding to mouse NPC1L1, several related ezetimibe analogs were examined as possible alternatives to fluorescently-labeled (BODIPY) ezetimibe glucuronide (compound 1) in the binding assay. Compound 2, which is a fluorescently labeled synthetic precursor for fluorescently-labeled (BODIPY) ezetimibe glucuronide (compound 1; Burnett et al., Bioorganic and Medicinal Chemistry Letters 12:315-318 (2002)), was identified as a viable option for detection of mouse NPC1L1 binding. Compound 2 contains a methyl ester substitution for the carboxylic acid on the glucuronide portion of the molecule (compound structures shown in FIG. 4A).

monkey NPC1L1 [1] = biological target: T2, monkey NPC1L1 (Macaca mulatta, UniProt A0MJA5); experiment: Radioligand binding of [3H]-glucuronidated ezetimibe (compound 4) to cell membranes; design: species or system rhesus monkey
Method: Cell Culture and Membrane Preparation. […] Cells were maintained in DMEM supplemented with 10% FBS, 100 U/ml pen/strep, and 500 μg/ml geneticin at 37° C., 5% CO2. All cell culture reagents were obtained from Invitrogen Life Technologies, (Carlsbad, Calif.). Cell membranes were prepared by lysing cells in 5 mM HEPES with protease inhibitors (Complete™ Protease Inhibitor Cocktail Tablets; Roche Diagnostics Corp., Indianapolis Ind.) for 15 min at 4° C. A membrane pellet was obtained by centrifuging the cell lysates at 12,000×g for 25 min. […] Radioligand. […] Natl. Acad. Sci. […] Reactions were performed in binding buffer (5 mM HEPES, 5.5 mM glucose, 117 mM NaCl and 5.4 mM KCl, pH 7.4). Cell membranes (50 μg in 20 μl) were added to each well. […] Binding reactions were incubated for 2 hours at 37° C. Samples were transferred to Unifilter-96 GF/C plates (Perkin Elmer, Wellesley Mass.) and filtered using a Brandel harvester (Gaithersburg Md.). […] Liquid scintillant (50 μl; Microscint-20, Perkin Elmer, Wellesley Mass.) was added and the bound radioactivity was measured using a microplate scintillation counter.

monkey NPC1L1 [2] = biological target: T2, monkey NPC1L1; experiment: Fluorescence NPC1L1 binding assay, HEK-293 cells, BODIPY-labeled compound 1; design: species or system rhesus monkey
Method: as §1, §2

human NPC1L1 = biological target: T3, human NPC1L1 (Homo sapiens, UniProt Q9UHC9, T1073A); settings: human NPC1L1, Garcia-Calvo et al. 2005; read-out: Kd, previously reported; cited from earlier work
T3 construct: expressed in transfected cells
T3 sequence (Q9UHC9 22-1332 isoform Q9UHC9-2 T1046A): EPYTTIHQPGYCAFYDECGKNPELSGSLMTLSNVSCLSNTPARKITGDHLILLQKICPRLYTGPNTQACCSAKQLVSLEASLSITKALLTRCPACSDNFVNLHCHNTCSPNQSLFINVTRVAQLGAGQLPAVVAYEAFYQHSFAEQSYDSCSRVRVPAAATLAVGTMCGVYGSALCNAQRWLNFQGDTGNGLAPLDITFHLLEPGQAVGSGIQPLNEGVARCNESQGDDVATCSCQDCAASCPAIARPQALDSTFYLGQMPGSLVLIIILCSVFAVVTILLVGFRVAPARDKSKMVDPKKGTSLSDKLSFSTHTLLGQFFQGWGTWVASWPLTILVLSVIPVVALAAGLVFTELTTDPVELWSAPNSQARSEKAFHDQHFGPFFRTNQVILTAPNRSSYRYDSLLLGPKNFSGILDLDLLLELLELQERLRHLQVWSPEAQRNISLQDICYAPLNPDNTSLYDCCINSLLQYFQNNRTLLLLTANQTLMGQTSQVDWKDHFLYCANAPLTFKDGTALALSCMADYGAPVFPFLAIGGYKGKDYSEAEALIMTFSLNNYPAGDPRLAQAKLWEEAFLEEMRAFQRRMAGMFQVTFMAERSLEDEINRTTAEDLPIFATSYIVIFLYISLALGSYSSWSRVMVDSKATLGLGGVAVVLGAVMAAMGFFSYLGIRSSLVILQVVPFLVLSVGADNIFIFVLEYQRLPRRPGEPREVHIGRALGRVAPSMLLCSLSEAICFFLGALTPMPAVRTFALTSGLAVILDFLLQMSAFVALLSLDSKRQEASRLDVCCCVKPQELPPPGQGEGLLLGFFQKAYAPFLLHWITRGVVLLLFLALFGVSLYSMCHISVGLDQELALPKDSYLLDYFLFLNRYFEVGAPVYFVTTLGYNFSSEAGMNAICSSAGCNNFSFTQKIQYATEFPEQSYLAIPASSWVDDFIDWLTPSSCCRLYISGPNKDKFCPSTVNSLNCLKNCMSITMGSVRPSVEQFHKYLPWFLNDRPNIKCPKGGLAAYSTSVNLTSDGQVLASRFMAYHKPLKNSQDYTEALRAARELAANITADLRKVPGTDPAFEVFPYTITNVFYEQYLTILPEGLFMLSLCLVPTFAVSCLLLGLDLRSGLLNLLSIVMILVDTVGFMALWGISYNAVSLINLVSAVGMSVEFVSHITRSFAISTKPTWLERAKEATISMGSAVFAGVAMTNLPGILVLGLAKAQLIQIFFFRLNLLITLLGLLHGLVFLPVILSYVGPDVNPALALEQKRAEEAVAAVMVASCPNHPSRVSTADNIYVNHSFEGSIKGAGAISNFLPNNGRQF

Work on `O=C(O)[C@H]1O[C@@H](Oc2ccc([C@@H]3[C@@H](CC[C@H](O)c4ccc(F)cc4)C(=O)N3c3ccc(F)cc3)cc2)[C@H](O)[C@@H](O)[C@@H]1O` [compound 4, glucuronidated ezetimibe] yielded a Ki (mouse NPC1L1; Mouse NPC1L1, competition with compound 2, read-out: Ki) of 9000 nM, a Ki (mouse NPC1L1; Table 3, Mouse, read-out: Ki Mouse NPC1L1) of 5400 nM and a Kd (monkey NPC1L1 [1]) of 102 nM. The Ki (monkey NPC1L1 [2]; Monkey NPC1L1, competition with compound 1, read-out: Ki) was 92 nM, the “difference in affinity versus ezetimibe (compound 3)” value (monkey NPC1L1 [2]; monkey NPC1L1) was roughly 10 fold and the Kd (human NPC1L1) was 220 nM.
